Experimental data reported in ChEMBL document CHEMBL3608258, “Anti-influenza activities of polyphenols from the medicinal mushroom Phellinus baumii” (Bioorg Med Chem Lett, 2015).
Activity calls are given as the source filed them. The rule behind the calls is not given here.

Legend:
[1] = molecular target: Neuraminidase (Influenza A virus) (UniProt B4URF0); test: Ratio of hispidin IC50 to compound IC50 for recombinant Influenza A virus H1N1 neuraminidase
[2] = system: Influenza A virus; test: Antiviral activity against Influenza A virus H1N1 infected in MDCK cells assessed as inhibition of virus-induced cytopathic effect by SRB assay; format: functional, organism-based
[3] = molecular target: T1, Neuraminidase (Influenza A virus, UniProt B4URF0); test: (§1) Inhibition of recombinant Influenza A virus H1N1 neuraminidase
[4] = molecular target: Neuraminidase (Influenza A virus) (UniProt B4URF0); test: as §1
[5] = molecular target: T1, Neuraminidase; test: (§2) Inhibition of recombinant Influenza A virus H5N1 neuraminidase
[6] = molecular target: Neuraminidase (Influenza A virus) (UniProt B4URF0); test: as §2
[7] = system: Influenza A virus; test: Antiviral activity against Influenza A virus H1N1 infected in MDCK cells assessed as inhibition of virus-induced change in cell morphology at 10 ug/ml after 2 days by microscopic analysis; format: functional, organism-based
[8] = Cytotoxicity against MDCK cells by SRB assay; format: cell-based, Canis lupus familiaris; details: dog
[9] = Retention time of the compound; format: physicochemical
[10] = molecular target: Neuraminidase (Influenza A virus) (UniProt B4URF0); test: Noncompetitive inhibition of recombinant Influenza A virus H1N1 neuraminidase using MU-NANA as substrate
[11] = molecular target: T1, Neuraminidase; test: Inhibition of recombinant Influenza A virus H3N2 neuraminidase
[12] = Therapeutic index, ratio of CC50 for MDCK cells to IC50 for Influenza A virus H1N1; format: cell-based; details: dog, read-out: Ratio CC50/IC50
[13] = system: Influenza A virus; test: Ratio of zanamivir IC50 to compound IC50 for Influenza A virus H1N1 infected in MDCK cells assessed as inhibition of virus-induced cytopathic effect by SRB assay; format: functional

What does the source list for `CC1=CC(=O)[C@H](c2c(O)cc(/C=C/c3ccc(O)c(O)c3)oc2=O)[C@@H](c2ccc(O)c(O)c2)O1` [DAVALLIALACTONE]?
Ratio IC50 [1]: 3.6; IC50 [2]: 42.8 µM; IC50 [3]: 14.2 µM; inhibition [4]: Dose-dependent effect; IC50 [5]: 21.8 µM; inhibition [6]: Dose-dependent effect; inhibition [7]: Active; CC50 [8]: 680 µM; Retention_time [9]: 9 min; Kiuc [10]: 27.6 µM; IC50 [11]: 21.1 µM; selectivity ratio [12]: 2.3

Which results are given for `O=c1cc(O)cc(/C=C/c2ccc(O)c(O)c2)o1` [HISPIDIN]?
IC50 [2]: 57.9 µM; IC50 [3]: 50.9 µM; inhibition [4]: Dose-dependent effect; IC50 [5]: 16.9 µM; inhibition [6]: Dose-dependent effect; inhibition [7]: Active; CC50 [8]: > 100 µM; Retention_time [9]: 11.6 min; Kiuc [10]: 43 µM; IC50 [11]: 45.2 µM; selectivity ratio [12]: > 1.7

For `O=c1cc(O)cc([C@H]2c3c(cc(/C=C/c4ccc(O)c(O)c4)oc3=O)O[C@@H]2c2ccc(O)c(O)c2)o1` [HYPHOLOMINE B], which Ratio IC50 [1] is on record?
The Ratio IC50 was 2.2.

And the IC50 [2]?
Its IC50 is 72.8 µM.

And the IC50 [3]?
The IC50 was 22.9 µM.

What about the inhibition [4] of the same molecule?
The inhibition was “Dose-dependent effect”.

And the IC50 [5]?
The IC50 was 12.3 µM.

What about the inhibition [6] of the same molecule?
The inhibition was “Dose-dependent effect”.

What about the inhibition [7] of the same molecule?
The inhibition was “Active”.

And the CC50 [8]?
Its CC50 is over 100 µM.

And the Retention_time [9]?
Its Retention_time is 14.5 min.

What about the Kiuc [10] of the same molecule?
Its Kiuc is 20.9 µM.

What about the IC50 [11] of the same molecule?
Its IC50 is 14.6 µM.

What about the selectivity ratio [12] of the same molecule?
Its selectivity ratio is over 1.4.

Which results are given for `CC1=CC(=O)C2(O1)c1c(cc(/C=C/c3ccc(O)c(O)c3)oc1=O)OC2c1ccc(O)c(O)c1` (configuration not stated) [INOSCAVIN A]?
Ratio IC50 [1]: 2.5; IC50 [2]: 22.6 µM; IC50 [3]: 20 µM; inhibition [4]: Dose-dependent effect; IC50 [5]: 18.5 µM; inhibition [6]: Dose-dependent effect; inhibition [7]: Active; CC50 [8]: 433 µM; Retention_time [9]: 14.9 min; Kiuc [10]: 24.5 µM; Ratio IC50 [13]: 2.9; IC50 [11]: 18.5 µM; selectivity ratio [12]: 4.4

What does the source list for `O=c1oc2cc(/C=C/c3ccc(O)c(O)c3)oc(=O)c2c2cc(O)c(O)cc12` [PHELLIGRIDIN D]?
Ratio IC50 [1]: 5.8; IC50 [2]: 24.6 µM; IC50 [3]: 8.8 µM; inhibition [4]: Dose-dependent effect; IC50 [5]: 10.9 µM; inhibition [6]: Dose-dependent effect; inhibition [7]: Active; CC50 [8]: > 100 µM; Retention_time [9]: 18.8 min; Kiuc [10]: 15.9 µM; IC50 [11]: 10.3 µM; selectivity ratio [12]: > 4.1

With `CC(=O)N[C@H]1[C@H]([C@H](O)[C@H](O)CO)OC(C(=O)O)=C[C@@H]1NC(=N)N` [ZANAMIVIR] as the molecule, how does the IC50 [2] read?
Its IC50 is 0.0647 µM.

What about the inhibition [7] of the same molecule?
The inhibition was “Active”.
